Test results published in patent US6998240B2, “Screen for selective inhibitors or activators of Smad protein function” (Wisconsin Alumni Research Foundation, priority 2001, dated 2006).
Residues, ends and D or L forms follow the SMILES beside them.

Tests used:
[1] = molecular target: Phosphorylated Smad2/4 Complex (Homo sapiens, UniProt Q15796); assay: 96 well microplate solid phase binding assay of GST-CBP to phosphorylated Smad2/4 complex; set-up: Smad2; 1–467; pBlueBac; His; Smad4; 1–552; Strep; Strep-tag; made in house
Procedure: Table 7, below, tabulates the results of a 96 well Microplate Format Binding Assay of CBP to Smad2 and Phosphorylated Smad2/4 Complex. Duplicate wells are shown with indicated amounts of Smad protein bound per well. Three different dilutions of biotinylated GST-CBP protein were added per well and incubated at room temperture for 1 hour. Wells were washed 3× with TBS+1% tween and Alkaline phosphatase conjugated strepavidin (Tropix) added. Bound conjugate was detected by addition of the CSPD substrate (Tropix) and relative light units (RLU) measured in a Tropix 717 microplate reader at a read time of 1 second per well.

[2] = molecular target: T1, Smad2-P (Homo sapiens, UniProt Q15796); assay: HTRF assay of biotin-FAST peptide binding to Smad2-P (competition)
T1 construct: Smad2; 1–467; pBlueBac; His; made in house; host or cells: Sf9 insect cells (baculovirus), co-infected with virus for membrane-targeted human Alk5 T204D
Description: (§1) To establish HTRF assays for Smad protein interactions, we have used reagents from Wallac-Perkin Elmer and Packard that include Europium-cryptate coupled to α-His epitope tag antibody, α-GST antibody or Streptavidin. As acceptor fluorophores we have used allophycocyanin (Packard's XL665) coupled to Streptavidin or direct labeling of GST-fusion protein with IC5 (Dojindo). Reagents are mixed in a 50 microliter volume in the wells of a 384 Black non-treated microwell plate (Corning) and HTRF detected in a Wallac Victor V multimode plate reader. The reader detects emission at 615 nm from the Europium chelate donor and at 665 nm from the APC or IC5 acceptor. Background, cross-talk and high FRET wells can be indicated on the plate map to allow the machine to compute a normalized value as a ratio Rn=(ET/D) Dmax where ET=A−BI−(C×D). • A—Fluorescence at 665 nm • BI—Blank (buffer only) at 665 nm • D—Fluorescence at 615 nm • C—Cross-talk correction value calculated from wells containing only donor fluorophore • (from “Quench Correction for LANCE TR-FRET” by Perkin-Elmer Wallace)
(§2) Over the past several months we have developed three HTRF assays for Smad binding interactions. All three assays use a Eu-chelate α-His epitope tag antibody as the donor. The antibody recognizes the hexahistidine epitope tag on the Smad proteins produced in the baculovirus expression system described above. As acceptors, we have used Streptavidin conjugated to allophycocyanin (Packard) that binds to biotinylated peptides. The peptides are synthesized to comprise the Smad interaction domain motif from human FAST or c-Jun (FIG. 3). The FAST 24-mer amino acid sequence is based on the homology between FAST, Mixer and Milk reported by Germain and colleagues (Germain, S., et al., supra, 2000). The24-mer C-JUN sequence is based on studies using deletions and gene fragments to define the Smad interaction motif (Zhang, Y., et al., supra, 1998; Liberati, N. T. et al., Proc. Natl. Acad. Sci. USA 96:4844–9, 1999). We also have developed an HTRF assay using IC5-GST-CBP, a fusion protein comprising the Smad interaction domain motif from CBP (a generous gift of Dr. Yigong Shi, Princeton University).
(§3) The assays are done in a 50 μl volume in the well of a 384-well plate. The assay buffer, as recommended by Packard for their HTRF reagents is 50 mM K-Hepes pH 7.0, 400 mM KF and 0.1% BSA. The high concentration of KF is recommended for the Eu(K) reagents from Packard. […] We have also optimized through many titrations the amount of Smad protein (220 ng/well, ˜4 pmoles per well of monomer), the concentration of biotinylated peptide (1 uMolar for FAST and C-JUN), the amount of Eu-anti-His tag antibody (36 ng/well) and the amount of Streptactin-APC (0.5 μg/well).
We used the FAST-SmadP HTRF assay described above. […] After 1 hr at room temperature, Streptavidin-APC was added to each well and 30 minutes later the fluorescence emissions at 615 nm and 665 nm were read in a PE-Wallac Victor V.

[3] = molecular target: T1, Smad2-P; assay: HTRF assay of IC5-GST-CBP binding to phosphorylated Smad2
Description: as §1, §2, §3
Table 5 contains data from using the GST-CBP fusion protein that is covalently coupled to the IC5 fluorophore acceptor through the cysteines in the GST portion of the fusion protein. There is no biotinylated peptide or Streptavidin-APC in these assays. […] The lower FRET counts could be due to larger distances between the donor and acceptor molecules in the complex. This might be overcome by using direct labeling of the Smad-P complex with Eu-cryptates rather than the Eu-labeled anti-His tag antibody.

CC[C@H](C)[C@H](NC(=O)[C@H](CC(N)=O)NC(=O)[C@@H](NC(=O)[C@H](CCCNC(=N)N)NC(=O)[C@H](Cc1ccc(O)cc1)NC(=O)[C@H](CC(C)C)NC(=O)[C@H](Cc1c[nH]cn1)NC(=O)[C@H](CCC(N)=O)NC(=O)[C@H](CCC(N)=O)NC(=O)[C@H](CCC(N)=O)NC(=O)[C@H](CCC(N)=O)NC(=O)[C@H](C)NC(=O)[C@H](CCC(=O)O)NC(=O)[C@H](CCCNC(=N)N)NC(=O)[C@H](CCC(=O)O)NC(=O)[C@@H](NC(=O)[C@H](CCC(N)=O)NC(=O)[C@H](CCCNC(=N)N)NC(=O)[C@H](C)NC(=O)[C@H](C)NC(=O)[C@H](CCC(=O)O)NC(=O)[C@@H](NC(=O)[C@H](C)N)C(C)C)[C@@H](C)CC)C(C)C)C(N)=O [CBP] (H-AVEAARQIEREAQQQQHLYRVNI-NH2; N-terminus assumed)
CBP bound by Smad-P complexes relative to an equivalent amount of unphosphorylated Smad [1]: > 30 fold | competition for Biotin-FAST binding to Smad-2P (in words) [2]: inability | competition for binding with the GST-CBP fusion protein (in words) [3]: can compete | Average Normalized Counts ([3]; 50 μM inhibitor peptide, IC5-GST-CBP binding to Smad2-P): 587 | remaining activity at 50 µM ([3]; 50 μM inhibitor peptide, IC5-GST-CBP binding to Smad2-P, read-out: Percent of Control (minus background)): 70% | Average Normalized Counts ([3]; 100 μM inhibitor peptide, IC5-GST-CBP binding to Smad2-P): 478 | remaining activity at 100 µM ([3]; 100 μM inhibitor peptide, IC5-GST-CBP binding to Smad2-P, read-out: Percent of Control (minus background)): 51% | IC50 ([3]; read-out: concentration of peptide for 50% inhibition of GST-CBP binding): 100 µM
